This is an account of results in US6191124A, “Methanol derivatives for treatment of retroviral infections especially HIV infections” (priority 1997, dated 2001).

Molecules are shown by their SMILES. Like-named read-outs stand apart in the source and are kept apart here. Square brackets hold non-standard residues; d marks the D form. Peptide text beside a SMILES is read from it. * marks the point of attachment. Sta = CC(C)C[C@H](N)[C@@H](O)CC(=O)O; Isovaleryl = CC(C)CC(=O)* Bounds are passed on as bounds.

What is called inhibition is the change of the read-out against control, counted positive when it falls. One may read the Ki as the equilibrium dissociation constant of an inhibitor or competing ligand from its target.

In series [1] the test system is HIV infection / AIDS. Particulars: cited from earlier work.
Series [2] deals with viral reverse transcriptase. As to conditions: cited from earlier work.
The target of series [3] is T1, HIV-1 protease (Human immunodeficiency virus type 1 group M subtype B, UniProt P04585). Kind of series: HIV protease screening assay (fluorescently labeled biotinylated substrate, streptavidin beads), percent inhibition. The class given is biochemical. As for the experimental part: The HIV protease screening assay is based on fluorescently labeled substrate which can be resolved from nonlabeled cleavage product using special beads coated with streptavidin. The substrate is biotinylated at the amino terminal arginine and fluorescently labeled with fluorescein isothiocynate (FITC) at the carboxyl terminal lysine. This assay has been employed to detect novel, nonpeptidic inhibitors of HIV-1 protease. Substrate (20 μl of 0.2 μM), sample (10 μl of desired concentration), and enzyme (10 μl of 0.1 μM) are added to a 96 well pandex plate. The assay is run in 0.1 M sodium acetate buffer at pH 5.5 in the presence of 1.0 M sodium chloride and 0.05% NP-40 with incubated in the dark for one hour at room temperature. Strepavidin coated polystyrene beads {40 μl of 0.1% (w/v)} are added and the plate is incubated in the dark for an additional half hour. The labeled cleavage product is separated from the unreacted substrate via filtration and is read on the Idexx screen machine. The data are analyzed by appropriate computer algorithms to ascertain percent inhibition values.

Series [4] deals with T1, HIV-1 protease. Description: Determination of Ki values, HIV-1 protease. In kind it is biochemical. On the procedure: Determination of Ki values utilizes the same materials and equipment employed for percent inhibition studies. Two-fold serial dilutions are made for a given inhibitor from 2, 3 or 4 starting concentrations with a total of 24, 36 or 48 individual inhibitor concentrations. These dilutions are performed utilizing the BioMek robotics system. The assay consists of 10 μL or 40 nM HIV-1 protease, 10 μL of the various inhibitor concentrations, and 20 μL of 200 μM substrate (40 μL total). The reaction is allowed to proceed for 90 min at room temperature, terminated with 40 μL of avidin beads and processed (supra vide). An inhibitor with a known Ki is run in parallel to verify the validity of the assay. The data is processed utilizing a computer program employing a nonlinear least square analysis of the data to generate the Ki values.

For series [5], the system named is HIV-1IIIB. Kind of series: HIV-1IIIB replication in human T-cell line H9 (p24 core antigen ELISA). The class given is cell-based. As to conditions: human T-cell lines, e.g., H9, infected with HIV-1IIIB. As for the experimental part:
Several compounds of the present invention, such as 2,3-dimethyl-[…]-(2-phenylethyl)imidazo[2,1-b]thiazole-5-methanol were tested in known human cell lines, such as human T-cell lines, e.g., H9, which were infected with HIV-1IIIB. […] The H9 cell line was originally derived from the peripheral blood of a human lymphoma patient and extensively cloned so that the cells were highly susceptible to HIV infection. Virus-free H9 cells were maintained in a humidified 5% CO2 atmosphere at 37° C. in RPMI Complete (RC) medium, which was composed of RPMI 1640 supplemented with 10% heat-inactivated fetal calf serum (FCS), 10 mM Hepes, 2 mM L-glutamine, 100 μg/ml streptomycin, and 100 U/ml penicillin. H9 cultures were split 1:5 twice weekly for a maximum 12-15 times. […]
HIVIIIb 's ability to replicate efficiently in human T lymphoblastoid cell lines made this strain of HIV the logical choice for protease inhibitor screen. […] The titer, measured at the 50% Tissue Culture Infectious Dose (TCID50), was determined by the Reed-Muench method of statistical analysis to determine the 50% infectivity endpoint.
The standard acute infectivity assay for the evaluation of the inhibitors of HIV protease was performed in 96 well microplates. […] The amount of HIV p24 core antigen was quantified with an ELISA procedure by following the manufacturers directions (Coulter Diagnostics). […]
In general terms: In an ELISA, binding on a coated surface is turned into a signal by an enzyme label.

Series [6] relates to HIV-I protease. As to conditions: cited from earlier work.
Series [7] concerns HIV. As to conditions: cited from earlier work.
For series [8] the following is noted: cited from earlier work.
In series [9] the test system is hepatic glycolysis. Particulars: cited from earlier work.
Setting [10] is: read-out: % Protease Inhibition.
Where [11] appears, read: read-out: Protease Inhibition, % Inhibition.
[12] abbreviates: Table 4, read-out: Protease Inhibition, Ki.

Turning to `Cc1cn([C@H]2C[C@H](N=[N+]=[N-])[C@@H](CO)O2)c(=O)[nH]c1=O` [AZT, 3'-azido-3'-deoxy-thymidine], the “decrease of mortality and frequency of opportunistic infections” value in series [1] is “shown to decrease the morality and frequency of opportunistic infections associated with AIDS”. Further, the “inhibition of viral reverse transcriptase” value in series [2] is reported as “known inhibitor of viral reverse transcriptase”.

For `Cc1sc2ncc(C(O)CCCc3ccccc3)n2c1C` (stereo not drawn) [Example 3, 2,3-Dimethyl-α-(3-phenylpropyl)imidazo-[2,1-b]thiazole-5-methanol], the “% Protease Inhibition” value came out at 16% in [3] (1.1-1.3 μM (Table 1)) and 72% in series [3] (3.3-3.7 μM (Table 1)). The inhibition at 10 µM in series [3] (setting [10]) was determined as 115%. The Ki in series [4] (Table 1, read-out: Ki) stood at 246 nM.

As to `Cc1sc2ncc(C(O)CCc3ccccc3)n2c1C` (stereo not drawn) [Example 11, 2,3-Dimethyl-α-(2-phenylethyl)imidazo[2,1-b]thiazole-5-methanol], the “% Protease Inhibition” value was 96% in series [3] (1.1-1.3 μM (Table 1)) and 109% in series [3] (3.3-3.7 μM (Table 1)). The inhibition at 10 µM in [3] (setting [10]) is 112%. The Ki in series [4] (Table 1, read-out: Ki) is 120 nM. Moreover, the “inhibition of retroviral replication” value in series [5] was “found to inhibit retroviral replication”.

In the case of `Cc1sc2ncc(C(O)/C=C/c3ccccc3)n2c1C` (stereo not drawn) [Example 12, 2,3-Dimethyl-α-(2-phenylethenyl)imidazo[2,1-b]thiazole-5-methanol], the “% Protease Inhibition” value in series [3] (1.1-1.3 μM (Table 1)) was determined as 63%; in series [3] (3.3-3.7 μM (Table 1)), 103%. The inhibition at 10 µM in series [3] (setting [10]) amounted to 110%. In addition, the Ki in [4] (Table 1, read-out: Ki) was 567 ± 282 nM.

As to `OC(CCc1ccccc1)c1cnc2sc3c(n12)CCCC3` (stereo not drawn) [Example 14, 5,6,7,8-Tetrahydro-α-(2-phenylethyl)imidazo[2,1-b]benzothiazole-3-methanol], the inhibition at 1.1 µM in series [3] (setting [11]) turned out to be 73%. The Ki in [4] (setting [12]) was 68 ± 14 nM.

`OC(CCc1ccccc1)c1cnc2sc3c(n12)CCCCC3` (stereo not drawn) [Example 15, 6,7,8,9-Tetrahydro-α-(2-phenylethyl)-5H-cyclohept[d]imidazo[2,1-b]thiazole-3-methanol]: the inhibition at 1.1 µM in series [3] (setting [11]) is 57%. For the same compound, the Ki in [4] (setting [12]) came to 57 ± 14 nM.

On to `OC(CCCCc1ccccc1)c1cnc2sc3c(n12)CCCCC3` (stereo not drawn) [Example 16, 6,7,8,9-Tetrahydro-α-(4-phenylbutyl)-5-H-cyclohept[d]imidazo[2,1-b]thiazole-3-methanol], for which the inhibition at 1.1 µM in series [3] (setting [11]) is 54%. In addition, the Ki in series [4] (setting [12]) came to 227 ± 42 nM.

Consider `OC(CCc1ccccc1)c1cnc2sc3c(n12)CCCCCC3` (stereo not drawn) [Example 17, 5,6,7,8,9,10-Hexahydro-α-(2-phenylethyl)cyclooct[d]imidazo-[2,1-b]thiazole-3-methanol], for which the inhibition at 1.1 µM in [3] (setting [11]) came out at 62%. The inhibition constant (Ki) in [4] (setting [12]) amounted to 72 ± 26 nM.

In the case of `OC(/C=C/c1ccco1)c1cnc2sc3c(n12)CCCCC3` (stereo not drawn) [Example 38, α-[2-(2-Furanyl)ethenyl]-6,7,8,9-tetrahydro-5H-cyclohept[d]imidazo[2,1-b]thiazol-3-methanol], the inhibition at 1.1 µM in series [3] (1.1 μM (Table 7), read-out: PROTEASE INHIBITION) came to 12%. In addition, the inhibition at 3.3 µM in [3] (3.3 μM (Table 7), read-out: PROTEASE INHIBITION) was 60%. In addition, in [3] (10 μM (Table 7), read-out: PROTEASE INHIBITION), the inhibition at 10 µM worked out at 98%.

Take `OC(CCc1ccco1)c1cnc2sc3c(n12)CCCCC3` (stereo not drawn) [Example 39, α-[2-(2-Furanyl)ethyl]-6,7,8,9-tetrahydro-5H-cyclohept[d]imidazo[2,1-b]thiazol-3-methanol]: the inhibition at 1.1 µM in series [3] (1.1 μM (Table 6), read-out: PROTEASE INHIBITION) amounted to 54%. The inhibition at 3.3 µM in [3] (3.3 μM (Table 6), read-out: PROTEASE INHIBITION) is 85%.

For the compound `Cc1sc2ncc(C(O)/C=C/c3ccco3)n2c1C` (stereo not drawn) [Example 41, α-[2-(2-Furanyl)ethenyl]2,3-dimethylimidazo[2,1-b]thiazol-3-methanol], the inhibition at 3.3 µM in series [3] (3.3 μM (Table 9), read-out: PROTEASE INHIBITION) is 19%. The inhibition at 10 µM in [3] (10 μM (Table 9), read-out: PROTEASE INHIBITION) was 81%.

As for `Cc1sc2ncc(C(O)CCc3ccco3)n2c1C` (stereo not drawn) [Example 42], the inhibition at 1.1 µM in series [3] (1.1 μM (Table 8), read-out: PROTEASE INHIBITION) is less than 10%. The inhibition at 3.3 µM in series [3] (3.3 μM (Table 8), read-out: PROTEASE INHIBITION) is 46%. The inhibition at 10 µM in series [3] (10 μM (Table 8), read-out: PROTEASE INHIBITION) turned out to be 92%.

On to `CC(C)CC(=O)N[C@H](C(=O)N[C@H](C(=O)N[C@@H](CC(C)C)[C@@H](O)CC(=O)N[C@@H](C)C(=O)N[C@@H](CC(C)C)[C@@H](O)CC(=O)O)C(C)C)C(C)C` [Pepstatin A] (Isovaleryl-VV[Sta]A[Sta]-OH), for which the “inhibition of HIV-I protease” value in [6] was “inhibitor of HIV-I protease”.

In the case of `Nc1ccn([C@H]2CC[C@@H](CO)O2)c(=O)n1` [ddC], in [7], the “activity against HIV in vitro” value is reported as “potent activity against HIV in vitro”. For the same compound, in series [8] (humans, clinical), the limiting toxicity entry is reported as “peripheral neuropathy which is reversible at low doses”.

For `O=c1[nH]cnc2c1ncn2[C@H]1CC[C@@H](CO)O1` [ddI], the “stimulation of hepatic glycolysis” value in series [9] is reported as “shown to stimulate hepatic glycolysis leading to irreversible liver damage”. Besides, in series [7], the “activity against HIV in vitro” value is given as “potent activity against HIV in vitro”. In addition, the limiting toxicity result in series [8] (in vivo) is “peripheral neuropathy and pancreatitis”.
